Data taken from article PMC9189845, “Structure–Activity Relationships of 8-Hydroxyquinoline-Derived Mannich Bases with Tertiary Amines Targeting Multidrug-Resistant Cancer” (Journal of Medicinal Chemistry, 2022).
Like-named read-outs stand apart in the source and are kept apart here.

Tests used:
[1] = test system: A431 cells; assay: PrestoBlue viability assay, A431 cells
[2] = test system: MES-SA cells; assay: PrestoBlue viability assay, MES-SA cells
[3] = test system: A431-B1 cells; assay: PrestoBlue viability assay, A431-B1 (A431-ABCB1) cells; settings: for SR (A431 / A431-B1): fraction of IC50 in P-gp negative vs positive cells
[4] = test system: MES-SA/Dx5 cells; assay: PrestoBlue viability assay, MES-SA/Dx5 cells (MDR, P-gp positive); settings: for SR_TQ: selectivity ratio MES-SA vs MES-SA/Dx5, with TQ; for SR: selectivity ratio MES-SA vs MES-SA/Dx5, without TQ
[5] = Homo sapiens, A-431, 72 h, read-out: IC50 / µM A431, 72 h incubation
[6] = Homo sapiens, A-431, read-out: pIC50 A431, SARM figure (converted)
[7] = read-out: IC50 / µM A431, 72 h incubation
[8] = Homo sapiens, MES-SA, 72 h, read-out: IC50 / μM MES-SA, absence of TQ, 72 h incubation
[9] = Homo sapiens, MES-SA, read-out: IC50 / μM MES-SA (values in parentheses), presence of 1 μM P-gp inhibitor tariquidar (TQ)
[10] = Homo sapiens, MES-SA, read-out: pIC50 value MES-SA+TQ, MES-SA cells, with TQ (converted)
[11] = Homo sapiens, MES-SA, read-out: pIC50 value MES-SA, MES-SA cells, without TQ (converted)
[12] = 72 h, read-out: IC50 / µM A431-B1, 72 h incubation
[13] = read-out: IC50 / µM A431-B1, 72 h incubation
[14] = read-out: pIC50 A431-B1, SARM figure (converted)
[15] = Homo sapiens, MES-SA/Dx5, 72 h, read-out: IC50 / μM MES-SA/Dx5, absence of TQ, 72 h incubation
[16] = Homo sapiens, MES-SA/Dx5, read-out: IC50 / μM MES-SA/Dx5 (values in parentheses), presence of 1 μM P-gp inhibitor tariquidar (TQ)
[17] = Homo sapiens, MES-SA/Dx5, read-out: pIC50 value MES-SA/Dx5 + TQ, MES-SA/Dx5 cells, with TQ (converted)
[18] = Homo sapiens, MES-SA/Dx5, read-out: pIC50 value MES-SA/Dx5, MES-SA/Dx5 cells, without TQ (converted)

| SMILES | IC50 [1, 5] [µM] | IC50 [1, 6] [µM] | IC50 [3, 12] [µM] | IC50 [3, 14] [µM] | IC50 [2, 8] [µM] | IC50 [2, 9] [µM] | IC50 [2, 10] [µM] | IC50 [2, 11] [µM] | IC50 [4, 15] [µM] | IC50 [4, 16] [µM] | IC50 [4, 17] [µM] | IC50 [4, 18] [µM] | SR_TQ [4] | SR [4] | other results |
| --- | --- | --- | --- | --- | --- | --- | --- | --- | --- | --- | --- | --- | --- | --- | --- |
| OCCN(CCO)Cc1cc(Cl)c2cccnc2c1O [Compound 6] | 73.6 ± 0.75 | – | 20.5 ± 0.95 | – | 31.2 ± 4.04 | 25.3 | 25.1 | 30.9 | 5.28 ± 1.28 | 15.4 | – | 5.13 | 1.64 | 5.91 | SR (A431 / A431-B1) [3]: 3.60; SR (MES-SA_TQ / Dx5_TQ) (values in parentheses) ([4]; fraction of IC50 in P-gp negative vs positive cells, presence of 1 μM TQ): 1.64 |
| CC(=O)Nc1cc(CN2CCCCC2)c(O)c2ncccc12 [Compound 11] | > 100 | – | 58.2 ± 0.65 | – | 12.4 ± 1.67 | – | – | 12.3 | 19.4 ± 2.33 | – | – | 19.1 | – | 0.64 | – |
| Oc1c(C(c2cccnc2)N2CCCC2)ccc2cccnc12 (stereo not drawn) [Compound 85] | – | – | – | 52.5 | 41 | – | – | 40.7 | 23.3 | – | – | 23.4 | – | 1.76 | – |
| CC1CCN(C(c2ccncc2)c2ccc3cccnc3c2O)CC1 (stereo not drawn) [Compound 100] | – | – | – | – | – | – | – | – | – | – | – | – | 4.37 | 2.74 | pIC50 value MES-SA ([2]; MES-SA cells, without TQ): 4.78; IC50 ([2]; read-out: IC50 / μM MES-SA, absence of TQ, 72 h incubation): 17.1 ± 3.89 µM; pIC50 value MES-SA/Dx5 ([4]; MES-SA/Dx5 cells, without TQ): 5.21; IC50 ([4]; read-out: IC50 / μM MES-SA/Dx5, absence of TQ, 72 h incubation): 6.24 ± 1.17 µM |
| Oc1c(C(c2ccccc2)N2CCOCC2)ccc2cccnc12 (stereo not drawn) [Compound 102] | – | – | – | – | 21.4 ± 1.01 | – | – | 21.4 | 11.7 ± 1.15 | – | – | 11.5 | – | 1.84 | – |
| Oc1c(C(c2ccccn2)N2CCOCC2)ccc2cccnc12 (stereo not drawn) [Compound 103] | – | – | – | – | 23.6 ± 3.13 | – | – | 23.4 | 14.6 ± 2.97 | – | – | 14.1 | – | 1.62 | – |

Further lines, with some results ahead:

| IC50 [1, 5] [µM] | IC50 [1, 6] [µM] | IC50 [3, 12] [µM] | IC50 [3, 14] [µM] | SMILES | IC50 [2, 8] [µM] | IC50 [2, 9] [µM] | IC50 [2, 10] [µM] | IC50 [2, 11] [µM] | IC50 [4, 15] [µM] | IC50 [4, 16] [µM] | IC50 [4, 17] [µM] | IC50 [4, 18] [µM] | SR_TQ [4] | SR [4] | other results |
| --- | --- | --- | --- | --- | --- | --- | --- | --- | --- | --- | --- | --- | --- | --- | --- |
| 14.8 ± 0.41 | 13.5 | 4.51 ± 0.73 | 5.01 | CCN(CC)Cc1ccc2cccnc2c1O [Compound 1] | 7.35 ± 1.28 | 5.15 | 5.13 | 7.24 | 1.64 ± 0.24 | 3.04 | 3.02 | 1.62 | 1.69 | 4.49 | IC50 [1, 7]: 13.4 ± 0.18 µM; IC50 [3, 13]: 4.99 ± 0.52 µM |
| 18.2 ± 1.02 | 16.6 | – | 3.16 | Oc1c(CN2CCCC2)ccc2cccnc12 [Compound 2] | 4.64 ± 0.82 | 3.98 | 3.98 | 4.57 | 1.47 ± 0.25 | 2.82 | 2.82 | 1.45 | 1.41 | 3.16 | IC50 [1, 7]: 17.1 ± 4.65 µM |
| 9.29 ± 1.55 | 9.33 | 1.58 ± 1.11 | 1.48 | CCN(CC)Cc1cc(Cl)c2cccnc2c1O [Compound 5] | 2.97 ± 0.33 | 3.25 | 3.24 | 2.95 | 0.35 ± 0.06 | 1.82 | 1.82 | 0.347 | 1.78 | 8.44 | IC50 [1, 7]: 10 ± 4.2 µM; IC50 [3, 13]: 1.52 ± 0.32 µM |
| 9.79 ± 1.13 | – | 9.18 ± 0.58 | – | O=[N+]([O-])c1cc(CN(CCO)CCO)c(O)c2ncccc12 [Compound 7] | 6.46 ± 0.49 | – | – | 6.46 | 4.33 ± 0.2 | – | – | 4.37 | – | 1.49 | SR (A431 / A431-B1) [3]: 1.07 |
| 14.5 ± 0.32 | – | 6.51 ± 0.65 | – | Oc1c(CN2CCOCC2)ccc2cccnc12 [Compound 8] | 7.55 ± 0.91 | – | – | 7.41 | 4.33 ± 0.31 | – | – | 4.27 | – | 1.75 | SR (A431 / A431-B1) [3]: 2.23 |
| 11.2 ± 0.37 | 11.2 | 4.57 ± 0.2 | 4.57 | CCCCOCc1cc(CN2CCN(C)CC2)c(O)c2ncccc12 [Compound 10] | 7.23 ± 0.14 | 5 | 5.01 | 7.24 | 2.12 ± 0.15 | 3.92 | 3.8 | 2.14 | 1.28 | 3.4 | IC50 [1, 7]: 11.2 ± 0.83 µM |
| 7.45 ± 0.15 | 7.41 | 1.97 ± 0.25 | 1.95 | Oc1c(CN2CCCC2)cc(Cl)c2cccnc12 [Compound 15] | 3.46 ± 0.51 | 4.34 | 4.27 | 3.39 | 0.3 ± 0.06 | 3.21 | 3.16 | 0.295 | 1.35 | 11.53 | – |
| 53.2 ± 6.49 | 52.5 | 4.05 ± 0.07 | 4.07 | COCc1cc(CN2CCCC2)c(O)c2ncccc12 [Compound 17] | 11.1 ± 1.78 | 10.5 ± 0.17 | 10.5 | 11 | 1.37 ± 0.26 | 3.59 ± 0.53 | 3.55 | 1.35 | 2.92 | 8.09 | – |
